Among the data in patent US20120040930A1, “TETRACYCLIC TERPENE SERIES COMPOUNDS, METHODS FOR PREPARING SAME, USES THEREOF AS MEDICINES AND PHARMACEUTICAL COMPOUNDS CONTAINING SAME” (priority 2005, published 2012) are IC50 values, retold here.

Assay [1] deals with T1, acetylcholinesterase (AChE) isolated from Electrophorus electricus (Electrophorus electricus, UniProt O42275).
T1 construct: AChE isolated from Electrophorus electricus; from tissue
Description: biochemical.

For assay [2], the target named is T2, human serum butyrylcholinesterase (BChE) (Homo sapiens, UniProt P06276).
T2 construct: BChE isolated from human serum; from tissue; host or cells: human serum
Description: biochemical.

[3] abbreviates: human serum BChE, read-out: BChE.
The mark [4] stands for this setting: AChE isolated from Electrophorus electricus, read-out: AChE IC50.

The structures appear in SMILES notation. pIC50: −log10 of the molar value. Like-named read-outs stand apart in the source and are kept apart here.

T2 sequence (P06276 29-602): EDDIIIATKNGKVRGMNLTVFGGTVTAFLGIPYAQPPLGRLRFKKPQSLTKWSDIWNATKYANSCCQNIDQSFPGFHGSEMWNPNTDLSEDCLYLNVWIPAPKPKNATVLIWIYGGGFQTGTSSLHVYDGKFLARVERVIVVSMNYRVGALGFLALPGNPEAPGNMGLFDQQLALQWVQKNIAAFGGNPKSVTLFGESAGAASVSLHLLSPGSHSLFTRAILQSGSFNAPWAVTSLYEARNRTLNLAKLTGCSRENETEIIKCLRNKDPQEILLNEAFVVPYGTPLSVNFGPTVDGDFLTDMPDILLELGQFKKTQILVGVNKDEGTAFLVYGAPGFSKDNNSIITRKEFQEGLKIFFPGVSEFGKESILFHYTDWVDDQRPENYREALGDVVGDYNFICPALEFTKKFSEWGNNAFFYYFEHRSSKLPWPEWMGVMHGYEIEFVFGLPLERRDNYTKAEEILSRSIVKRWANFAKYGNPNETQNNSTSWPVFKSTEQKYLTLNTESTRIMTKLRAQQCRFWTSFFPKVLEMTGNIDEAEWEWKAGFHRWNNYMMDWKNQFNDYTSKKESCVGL
T1 sequence (O42275 24-633): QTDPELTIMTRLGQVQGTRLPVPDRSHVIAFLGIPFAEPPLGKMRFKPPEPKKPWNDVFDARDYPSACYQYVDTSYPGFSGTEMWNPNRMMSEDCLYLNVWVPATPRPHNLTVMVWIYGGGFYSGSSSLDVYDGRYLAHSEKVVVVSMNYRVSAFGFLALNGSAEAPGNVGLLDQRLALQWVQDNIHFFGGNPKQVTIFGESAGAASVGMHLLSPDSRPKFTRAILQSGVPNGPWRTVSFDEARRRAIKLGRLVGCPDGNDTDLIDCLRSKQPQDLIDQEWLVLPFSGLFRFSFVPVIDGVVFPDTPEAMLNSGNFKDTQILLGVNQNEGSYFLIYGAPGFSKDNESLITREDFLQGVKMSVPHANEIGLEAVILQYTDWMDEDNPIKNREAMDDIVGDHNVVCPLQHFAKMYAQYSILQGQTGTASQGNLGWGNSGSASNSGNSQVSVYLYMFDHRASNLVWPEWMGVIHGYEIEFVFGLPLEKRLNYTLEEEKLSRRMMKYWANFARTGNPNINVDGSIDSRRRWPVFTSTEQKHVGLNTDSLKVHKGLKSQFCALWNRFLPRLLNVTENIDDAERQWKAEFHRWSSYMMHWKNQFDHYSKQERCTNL

Take `CCC(C)C(=O)N[C@H]1CC=C2C[C@H]3C(=O)C[C@]4(C)[C@@H]([C@H](C)N(C)C)[C@H](O)C[C@@]4(C)[C@@H]3CC[C@H]2[C@]1(C)CO` (stereo partly drawn) [Compound 7e, (20S)-10(9->1)abeo-4α-hydroxymethyl-4,14α-dimethyl-20-dimethylamino-3 (S-2-methylbutyrylamino)-5α,9-pregn-1(10)-en-16α-ol-11-one]: the figures for the pIC50 in assay [1] (AChE IC50) and in assay [2] (setting [3]) were 6.98 and under 5.00, respectively.
For the compound `C[C@@H]([C@H]1[C@H](O)C[C@@]2(C)[C@@H]3CC[C@@H]4C(=CC[C@H](NC(=O)C(C)(C)C)[C@@]4(C)CO)C[C@H]3C(=O)C[C@]12C)N(C)C` [Compound 7f, (20S)-10(9->1)abeo-4α-hydroxymethyl-4,14α-dimethyl-20-dimethylamino-3 (2,2-dimethylpropionylamino)-5α,9-pregn-1(10)-en-16α-ol-11-one], the pIC50 is 5.32 in assay [1] (setting [4]) and under 6.00 in assay [2] (setting [3]).
The corresponding values for `C[C@@H]([C@H]1[C@H](O)C[C@@]2(C)[C@@H]3CC[C@@H]4C(=CC[C@H](NC(=O)Cc5ccccc5)[C@@]4(C)CO)C[C@H]3C(=O)C[C@]12C)N(C)C` [Compound 7g, (20S)-10(9->1)abeo-4α-hydroxymethyl-4,14α-dimethyl-20-dimethylamino-3 (phenylacetylamino)-5α,9-pregn-1(10)-en-16α-ol-11-one] are under 6.00 and under 5.00.
For the compound `C[C@@H]([C@H]1[C@H](O)C[C@@]2(C)[C@@H]3CC[C@@H]4C(=CC[C@@H]5N=C(C6CCCCC6)OC[C@]54C)C[C@H]3C(=O)C[C@]12C)N(C)C` [Compound 8d, (20S)-10(9->1)abeo-4,14α-dimethyl-20-dimethylamino(2′-cyclohexyl-4′,4′-dihydro[3′,1′]oxazin)-5α,9-pregn-1(10)-en-16α-ol-11-one], the pIC50 in assay [1] (setting [4]) was 6.39; in assay [2] (setting [3]), 6.43.
Regarding `CC(C)[C@H]1N[C@H]2CCC34C[C@]35C(=O)C[C@]3(C)[C@@H]([C@H](C)N(C)C)[C@H](O)C[C@@]3(C)[C@@H]5CC[C@H]4[C@]2(C)CO1` (stereo partly drawn) [Compound 9, (20S)-9,19-cyclo-4,14α-dimethyl-20-dimethylamino(2′β-isopropyl-1′,2′,4′,4′-tetrahydro[3′,1′]oxazin)-5α,9-pregnan-16α-ol-11-one], the pIC50 in assay [1] (setting [4]) is 5.62; in assay [2] it was under 5.00.
For `C[C@@H]([C@H]1[C@H](O)C[C@@]2(C)[C@@H]3CC[C@@H]4C(=CC[C@H](N)[C@@]4(C)CO)C[C@H]3C(=O)C[C@]12C)N(C)C` [Compound 11, (20S)-10(9->1)abeo-3-amino-4α-hydroxymethyl-4,14α-dimethyl-20-dimethylamino-5α,9-pregn-1(10)-en-16α-ol-11-one], the pIC50 is 5.82 in assay [1] (setting [4]) and under 5.00 in assay [2] (setting [3]).
For `CC(=O)O[C@@H]1C[C@@]2(C)[C@@H]3CC[C@@H]4C5(CC[C@H](NC(=O)C(C)C)[C@@]4(C)CO)C[C@@]35C(=O)C[C@]2(C)[C@H]1[C@H](C)N(C)C` (stereo partly drawn) [Compound 13, (20S)-16α-acetyl-3-isobutyrylamino-9,19-cyclo-4α-hydroxymethyl-4,14α-dimethyl-20-dimethylamino-5α,9-pregnan-11-one], in that order: under 5.00 and under 6.00.
Consider `CC(=O)O[C@@H]1C[C@@]2(C)[C@@H]3CC[C@@H]4C5(CC[C@H](NC(=O)C(C)C)[C@@]4(C)C=O)C[C@@]35C(=O)C[C@]2(C)[C@H]1[C@H](C)N(C)C` (stereo partly drawn) [Compound 14, (20S)-16α-acetyl-3-isobutyrylamino-9,19-cyclo-4α-formyl-4,14α-dimethyl-20-dimethylamino-5α,9-pregnan-11-one], for which the pIC50 in assay [1] (setting [4]) and in assay [2] (setting [3]) was under 6.00 each time.
For `CC(C)C(=O)N[C@H]1CCC23C[C@]24C(=O)C[C@]2(C)[C@@H]([C@H](C)N(C)C)[C@H](OC(=O)C(C)(C)C)C[C@@]2(C)[C@@H]4CC[C@H]3[C@]1(C)/C=N/Cc1ccccc1` (stereo partly drawn) [Compound 19, (20S)-16α-pivalyl-3-isobutyrylamino-9,19-cyclo-4α-benzyliminomethyl-4,14α-dimethyl-20-dimethylamino-5α,9-pregnan-11-one], the pIC50 in assay [1] (setting [4]) is under 6.00; in assay [2] (setting [3]), 5.89.
In the case of `CC(=O)O[C@@H]1C[C@@]2(C)[C@@H]3CC[C@@H]4C5(CC[C@H](NC(=O)C(C)C)[C@@]4(C)COS(=O)(=O)c4ccc(C)cc4)C[C@@]35C(=O)C[C@]2(C)[C@H]1[C@H](C)N(C)C` (stereo partly drawn) [Compound 23, (20S)-16α-acetyl-3-isobutyrylamino-9,19-cyclo-4α-hydroxytosylmethyl-4,14α-dimethyl-20-dimethylamino-5α,9-pregnan-11-one], the pIC50 in assay [1] (setting [4]) was 5.36; in assay [2] (setting [3]) it was under 4.00.
The corresponding values for `CC(C)C(=O)N[C@H]1CCC23C[C@]24C(=O)C[C@]2(C)[C@@H]([C@H](C)N(C)C)[C@H](O)C[C@@]2(C)[C@@H]4CC[C@H]3[C@]1(C)COCc1ccccc1` (stereo partly shown) [Compound 27] are 4.78 and 5.28.
Turning to `C[C@@H]([C@H]1[C@H](O)C[C@@]2(C)[C@@H]3CC[C@@H]4C5(CC[C@H](N)[C@@]4(C)CO)C[C@@]35[C@@H](O)C[C@]12C)N(C)C` (stereo partly drawn) [Compound 28, (20S)-3-amino-9,19-cyclo-4α-hydroxymethyl-4,14α-dimethyl-20-dimethylamino-5α,9-pregnan-16α,11-diol-11-one], the pIC50 in assay [1] (setting [4]) is under 6.00; in assay [2] (setting [3]) it was 5.61.
For `CC(C)C(=O)N[C@H]1CCC23C[C@]24C(=O)C[C@]2(C)[C@@H]([C@H](C)[N+](C)(C)[O-])[C@H](O)C[C@@]2(C)[C@@H]4CC[C@H]3[C@]1(C)CO` (stereo partly drawn) [Compound 29, (20S)-3-isobutyrylamino-9,19-cyclo-4α-hydroxymethyl-4,14α-dimethyl-20-dimethylazinoyl-5α,9-pregnan-16α,11-ol-11-one], in that order: 5.85 and under 6.00.
`CC(C)C1=NC2CC[C@H]3C=C4C(=O)C[C@]5(C)[C@@H]([C@H](C)N(C)C)[C@H](O)C[C@@]5(C)[C@@H]4CC[C@H]3[C@]2(C)CO1` (stereo partly drawn) [Compound 32, (20S)-9(10->19)abeo-4,14α-dimethyl-20-dimethylamino(2′-isopropyl-4′,4′-dihydro[3′,1′]oxazin)-5α,9-pregn-1(10)-en-16α-ol-11-one]: the pIC50 was 6.95 in assay [1] (setting [4]) and 5.84 in assay [2].
